{"source": "paper PMC9268428", "about": "“Determination of the Highly Sensitive Carboxyl-Graphene Oxide-Based Planar Optical Waveguide Localized Surface Plasmon Resonance Biosensor” (Nanomaterials, 2022)", "molecular_target": "T1, streptavidin (Streptomyces avidinii, UniProt P22629)", "T1 construct": "free analyte in PBS", "T1 sequence (P22629 25-183)": "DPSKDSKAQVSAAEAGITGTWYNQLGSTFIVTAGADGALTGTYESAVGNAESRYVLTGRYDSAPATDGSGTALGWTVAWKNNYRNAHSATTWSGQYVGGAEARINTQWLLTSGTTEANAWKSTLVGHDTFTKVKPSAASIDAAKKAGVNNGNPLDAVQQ", "experiment": "localized surface plasmon resonance on graphene-oxide optical waveguide, affinity constant from ka/kd", "type": "binding", "conditions": "read-out: Kf (converted)", "source_text": "localized surface plasmon resonance on graphene-oxide optical waveguide, affinity constant from ka/kd on streptavidin | ka and kd of biotin binding with streptavidin were estimated to be", "note": "Structures can show the parent of a compound that is named as a salt."}
{"smiles": "NCCCNC(=O)CCCC[C@@H]1SC[C@@H]2NC(=O)N[C@@H]21", "note": "[N-(+)-biotinyl-3-aminopropylammonium trifluoroacetate]", "values": [{"measurement": "Kd", "value": 0.137, "unit": "nM"}]}
